Values belong to the molecule of their own block, whether it stands above or below them.
Tests used:
[1] = parameters: species or system mice; conditions: mouse, in vivo, po, 5 mg/kg
Description: Male nude mice (CAnN.Cg-Foxn1-nu, 4 weeks old, 20 g to 22 g) were purchased from OrientBio (Seongnam, Republic of Korea). The mice were placed in a chamber with conditions maintained at 23° C. and 50% humidity with a period of 12 hours of light and 12 hours of darkness. All animal experiments were conducted according to the National Institutes of Health's Laboratory Animal Care and Use Guidelines (NIH Publications No. 8023, revised 1996) and the Kyung Hee University's Animal Care and Use Guidelines ([…]-441, approval data: Sep. 28, 2021). […] The control group was administered with only 0.9% of general saline during this period. Body weights and tumor volumes of the mice were measured daily in all mice during the study period. All mice were euthanized after the end of the experiments. Blood, liver, spleen, kidney, and tumor tissues were extracted and weighed. In order to obtain the protein of tumor tissue, a portion of the tissue was processed with RIPA buffer containing a protease inhibitor cocktail. Then, the expression degree of a specific protein (determined by Western blot) was determined. […] Fuji Dri-Chem analyzer (3500, Fuji Photo Film Co., Osaka, Japan) was used to measure alanine aminotransferase (ALT), aspartate aminotransferase (AST), total bilirumin (T-Bili), total protein (TP), albumin (Alb), albumin/globulin (A/G) ratio, total cholesterol (T-Chol), total triglyceride (TG), glucose (GLU), and blood urea nitrogen (BUN) values.

[2] = tested on: AGS xenograft tumor tissue; experiment: IHC staining of tumor tissue; format: in vivo; conditions: tumor tissue of administered mice
Description: The tumor tissue was fixed with 10% formalin and embedded with paraffin. Immunohistochemical (IHC) staining was performed using a mouse and rabbit-specific HRP/DAB (ABC) detection IHC kit (Abcam, Cambridge, MA, USA). The tissue was observed through an optical microscope, and the presence of a specific protein in the tumor tissue was determined to be the presence of a brown yellow color. The results were evaluated using ImageJ software.

[3] = tested on: AGS xenograft tumor tissue; experiment: Western blot of tumor tissue of xenograft mice; format: in vivo; conditions: tumor tissue, oral 5 mg/kg, compared to control group
Description: For whole protein extraction, AGS cells were processed with samples at various concentrations for 24 hours. The cells were dissolved using Pierce™ RIPA buffer (Thermo Fisher Scientific, Rockford, IL, USA) together with protease inhibitor cocktail (GenDEPOT, TX, USA). The cell-dissolved solution formed in the above manner was centrifuged at 12,000 rpm for 20 minutes. The protein was loaded into a 10% SDS-PAGE gel using a protein gel electrophoresis chamber system and transferred to a PVDF membrane (Thermo Fisher Scientific, Rockford, IL, USA). A PBST solution containing 5% skim milk was used to block the membrane at 25° C. for 1 hour. Then, the membrane was incubated overnight at 4° C. with primary antibodies. Finally, the membrane was incubated with the secondary antibodies at 25° C. for 1 hour, and a protein band was detected using West-Q Pico ECL Solution (GenDEPOT, TX, USA). The results were quantified using ImageJ software.
Each mouse was orally administered with 8-paradol and 5-FU once a day for a total of 16 days. The control group was administered with only 0.9% of general saline during this period. Body weights and tumor volumes of the mice were measured daily in all mice during the study period. All mice were euthanized after the end of the experiments. Blood, liver, spleen, kidney, and tumor tissues were extracted and weighed. In order to obtain the protein of tumor tissue, a portion of the tissue was processed with RIPA buffer containing a protease inhibitor cocktail. Then, the expression degree of a specific protein (determined by Western blot) was determined.

[4] = tested on: AGS cells; conditions: for dose at which significant toxicity to AGS cells was not exhibited: MTT; for IC50: read-out: IC50 on AGS cells, 24 hours, MTT assay; for dose at which significant toxicity to AGS cells was not exhibited / IC50: AGS cells
Description: AGS cells were grown in RPMI medium containing 10% FBS and 1% PS. HEK293 and RAW264.7 cells were grown in DMEM medium containing 10% FBS and 1% PS under conditions of 37° C., 5% CO2 and 95% air.
In order to evaluate toxicity to each cell, the sample was incubated in each cell (1×10^5 cells/well) cultured in the above manner for 24 hours, and then cytotoxicity to each cell was examined by using the MTT assay.

Compound: N#CC(C#N)=NNc1cccc(Cl)c1 [CCCP, carbonyl cyanide m-chlorophenylhydrazone, reference compound]
dose at which significant toxicity to AGS cells was not exhibited [4]: less than 15 μM

Compound: CCCCCCCCC[C@H](O)CC(=O)CCc1ccc(O)c(OC)c1 [Purified Compound 5, 10-gingerol]
IC50 [4]: 16.1 ± 2.32 µM

Compound: CCCCCCCCC/C=C/C(=O)CCc1ccc(O)c(OC)c1 [Purified Compound 8, 10-shogaol]
IC50 [4]: 64.5 ± 1.98 µM

Compound: CO[C@H]1C[C@@H]2CC[C@@H](C)[C@@](O)(O2)C(=O)C(=O)N2CCCC[C@H]2C(=O)O[C@H]([C@H](C)C[C@@H]2CC[C@@H](O)[C@H](OC)C2)CC(=O)[C@H](C)/C=C(\C)[C@@H](O)[C@@H](OC)C(=O)[C@H](C)C[C@H](C)/C=C/C=C/C=C/1C [rapamycin, reference compound]
dose at which significant toxicity to AGS cells was not exhibited [4]: less than 6 μM

Now from value to molecule, other results behind:

A/G (albumin/globulin) [1]: 0.52 ratio
Alb (albumin) [1]: 1.7 g/dL
BUN (blood urea nitrogen) [1]: 26.7 mg/dL
Crea (creatinine) [1]: 0.34 mg/dL
GLU (glucose) [1]: 56 mg/dL
T-Bili (total bilirubin) [1]: 0.08 mg/dL
T-Chol (total cholesterol) [1]: 124 mg/dL
TG (triglyceride) [1]: 34 mg/dL
TP (total protein) [1]: 5.1 g/dL
Compound: O=c1[nH]cc(F)c(=O)[nH]1 [5-FU, 5-fluorouracil]
ALT (alanine aminotransferase) [1]: 101.6 U/L
AST (aspartate aminotransferase) [1]: 204.9 U/L
density of LC3 and caspase-3 in tumor tissue [2]: increased
protein expressions of LC3, Pink1, Parkin, Bax, Cytochrome-c, cleaved-caspase-3/caspase-3, Cleaved-caspase-9/caspase-9, p62 and Bcl-2 [3]: lower
cytotoxicity to AGS cells [4]: strong toxicity

IC50 [4]: 25.7 ± 1.87 µM
Compound: CCCCCCCC(=O)CCc1ccc(O)c(OC)c1 [Purified Compound 1, 6-paradol]

IC50 [4]: 178 ± 2.51 µM
Compound: CCCCC[C@H](O)CC(=O)CCc1ccc(O)c(OC)c1 [Purified Compound 2, 6-gingerol]

IC50 [4]: 33.2 ± 1.21 µM
Compound: CCCCCCC[C@H](O)CC(=O)CCc1ccc(O)c(OC)c1 [Purified Compound 4, 8-gingerol]

IC50 [4]: 32.9 ± 2.26 µM
Compound: CCCCC/C=C/C(=O)CCc1ccc(O)c(OC)c1 [Purified Compound 6, 6-shogaol]

IC50 [4]: 45.6 ± 3.6 µM
Compound: CCCCCCC/C=C/C(=O)CCc1ccc(O)c(OC)c1 [Purified Compound 7, 8-shogaol]
